The values that follow come from patent US10184137B2, “Method of producing isoprene monomer” (AJINOMOTO CO., INC., priority 2014, dated 2019).

Where a name gives a salt, the structure may show the parent alone.

In series [1] the target is T1, Methanosaeta concilii mevalonate kinase (mcl), wild type, SEQ ID NO:6, N-terminal His-tag (Methanothrix soehngenii, UniProt F4BZB3).
T1 sequence (F4BZB3 1-317): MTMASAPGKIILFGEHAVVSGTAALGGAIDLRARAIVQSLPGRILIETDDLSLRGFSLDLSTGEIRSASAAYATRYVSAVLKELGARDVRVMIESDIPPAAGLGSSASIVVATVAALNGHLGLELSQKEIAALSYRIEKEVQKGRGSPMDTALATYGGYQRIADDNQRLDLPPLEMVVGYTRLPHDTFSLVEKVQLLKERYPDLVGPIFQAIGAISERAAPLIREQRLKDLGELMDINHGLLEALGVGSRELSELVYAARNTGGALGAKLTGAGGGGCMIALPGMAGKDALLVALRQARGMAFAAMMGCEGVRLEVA
As to the kind of experiment: Km and kcat of mevalonate kinase (mcl-derived). To be noted: compared with the other enzymes.

In series [2] the target is T2, Methanocella paludicola mevalonate kinase (mpd), wild type, SEQ ID NO:1, N-terminal His-tag (Methanocella paludicola, UniProt D1YZ39). As to the kind of experiment: Km and kcat of mevalonate kinase (mpd-derived). To be noted: compared with the other enzymes.
Series [3] deals with Corynebacterium variabile mevalonate kinase (cva), wild type, SEQ ID NO:3, N-terminal His-tag (Corynebacterium variabile, UniProt A0A0X2NLH5). The experiment in a line: Inhibition of cva-derived mevalonate kinase by DMAPP, GPP, FPP or DPM. It counts as biochemical. To be noted: 1 mM DPM, control 0.073275. The procedure: (§1) Km value was calculated by Lineweaver-Burk plot.
(§2) Since GPP and FPP solutions contain methanol, methanol which was needed to keep the same methanol level at the addition to the reaction system was added to the reaction solution, which was designated as control.
(§3) Effect of 1 mM diphosphomevalonate (DPM) on each enzyme was also studied.

Series [4] concerns the target T1, Methanosaeta concilii mevalonate kinase (mcl), wild type, SEQ ID NO:6, N-terminal His-tag. The experiment in a line: Inhibition of mcl-derived mevalonate kinase by DMAPP, GPP, FPP or DPM. It counts as biochemical. To be noted: mcl; 1 mM DPM; control 0.1373. Here is the method:
as §1, §2, §3

The target in series [5] is T3, Methanosarcina mazei mevalonate kinase (mma), wild type, SEQ ID NO:12, N-terminal His-tag (Methanosarcina mazei, UniProt Q8PW39).
T3 sequence (Q8PW39 1-301): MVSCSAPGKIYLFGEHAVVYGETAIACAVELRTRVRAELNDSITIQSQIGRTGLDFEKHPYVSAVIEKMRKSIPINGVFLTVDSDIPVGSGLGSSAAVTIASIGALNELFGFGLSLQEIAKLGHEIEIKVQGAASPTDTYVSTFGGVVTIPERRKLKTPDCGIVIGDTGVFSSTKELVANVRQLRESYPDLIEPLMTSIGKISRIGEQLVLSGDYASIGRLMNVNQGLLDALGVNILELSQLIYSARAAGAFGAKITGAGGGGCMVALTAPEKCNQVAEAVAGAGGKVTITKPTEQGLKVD
The experiment in a line: Inhibition of mma-derived mevalonate kinase by DMAPP, GPP, FPP or DPM. It counts as biochemical. The procedure: as §1, §2, §3

Series [6] deals with T2, Methanocella paludicola mevalonate kinase (mpd), wild type, SEQ ID NO:1, N-terminal His-tag. As to the kind of experiment: Inhibition of mpd-derived mevalonate kinase by DMAPP, GPP, FPP or DPM. It counts as biochemical. To be noted: 1 mM DPM, control 0.148. Here is the method: as §1, §2, §3
The target of series [7] is T4, Nitrosopumilus maritimus mevalonate kinase (nmr), wild type, SEQ ID NO:9, N-terminal His-tag (Nitrosopumilus maritimus, UniProt A9A427). The experiment in a line: Inhibition of nmr-derived mevalonate kinase by DMAPP, GPP, FPP or DPM. It counts as biochemical. To be noted: 1 mM DPM, control 0.2064. The procedure:
as §1, §2, §3

The target of series [8] is T5, Saccharomyces cerevisiae mevalonate kinase (sce, ERG12), wild type, NP_013935.1, N-terminal His-tag (Saccharomyces cerevisiae, UniProt P07277).
T5 construct: His-tag (N); made in house; host or cells: E. coli BL21(DE3)
T5 sequence (P07277 1-443): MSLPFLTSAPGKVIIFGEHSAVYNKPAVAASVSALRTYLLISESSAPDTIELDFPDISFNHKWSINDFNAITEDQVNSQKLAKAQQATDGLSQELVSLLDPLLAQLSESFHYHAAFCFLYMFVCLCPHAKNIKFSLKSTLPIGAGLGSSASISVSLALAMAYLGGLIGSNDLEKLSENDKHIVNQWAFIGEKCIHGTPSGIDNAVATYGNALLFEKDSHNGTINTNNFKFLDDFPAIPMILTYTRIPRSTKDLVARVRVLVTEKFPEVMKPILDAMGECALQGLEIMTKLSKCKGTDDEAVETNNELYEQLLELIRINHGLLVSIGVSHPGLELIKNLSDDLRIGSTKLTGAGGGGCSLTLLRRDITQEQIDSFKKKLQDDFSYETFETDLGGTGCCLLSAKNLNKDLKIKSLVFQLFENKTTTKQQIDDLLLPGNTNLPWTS
The experiment in a line: Inhibition of sce-derived mevalonate kinase by DMAPP, GPP, FPP or DPM. It counts as biochemical. To be noted: control 0.1028. The procedure: as §1, §2, §3

The target in series [9] is T4, Nitrosopumilus maritimus mevalonate kinase (nmr), wild type, SEQ ID NO:9, N-terminal His-tag. The experiment in a line: Examination of product inhibition on nmr-derived mevalonate kinase. It counts as biochemical.
The nature of series [10]: HPLC verification of prepared potassium mevalonate after frozen storage. To be noted: HPLC peak area versus lithium mevalonate standard; stored at −20° C.
Substrate in series [11]: Nc1ncnc2c1ncn2[C@@H]1O[C@H](COP(=O)(O)OP(=O)(O)OP(=O)(O)O)[C@@H](O)[C@H]1O
As to the kind of experiment: purified protein, by the assay type. It counts as biochemical, Corynebacterium variabile. To be noted: other: cva, 5 mM potassium mevalonate, pH 7.6, 30° C., Lineweaver-Burk plot. The procedure: (§4) Each obtained plasmid was used for transformation of E. coli BL21(DE3). […] When OD600 reached approximately 0.5, 0.1 mM IPTG (for cva, mma, nmr, and sce) or 1 mM (for mcl and mpd) of IPTG was added, and then the mixture was kept at 20° C. overnight to induce the target protein. Harvested cells were suspended in buffer solution A (50 mM sodium phosphate, 0.3 M NaCl and 20 mM Imidazol), and then the cells were disrupted with an ultrasonic disruptor (TOMY: UD-201). […] After centrifugation (28,000×g, 30 min), the supernatant was adsorbed onto His-Trap HP (GE Healthcare) to elute the target protein by linear concentration gradient of Imidazol (final concentration 0.5 M). Obtained protein was dialyzed by using an external solution composed of 20 mM Tris-HCl (pH 8.0) containing 1 mM DTT and 50 mM NaCl. Dialyzed protein was designated as purified enzyme. Protein quantity was measured with Bio-RAD protein assay kit and BSA standard condition.
(§5) Decrease in absorbance at 340 nm at 30° C. was measured to determine the enzyme activity. […] Km value was calculated by Lineweaver-Burk plot.
(§6) Measured activity of each enzyme (JABS/min) was presented on Table 9 for the calculation of apparent Km value (Km app.) of each enzyme. Table 10 presents Km app., Vmax, molecular weight of the enzyme protein, protein concentration in the enzyme solution and calculated kcat.

Substrate in series [12]: Nc1ncnc2c1ncn2[C@@H]1O[C@H](COP(=O)(O)OP(=O)(O)OP(=O)(O)O)[C@@H](O)[C@H]1O
As to the kind of experiment: purified protein, by the assay type. It counts as biochemical, Saccharomyces cerevisiae. To be noted: other: sce, 5 mM potassium mevalonate, pH 7.6, 30° C., Lineweaver-Burk plot. Here is the method: as §4, §5, §6

Substrate in series [13]: Nc1ncnc2c1ncn2[C@@H]1O[C@H](COP(=O)(O)OP(=O)(O)OP(=O)(O)O)[C@@H](O)[C@H]1O
The experiment in a line: purified protein, by the assay type. It counts as biochemical, Methanosarcina mazei. To be noted: other: mma, 5 mM potassium mevalonate, pH 7.6, 30° C., Lineweaver-Burk plot. The procedure: as §4, §5, §6

Substrate in series [14]: Nc1ncnc2c1ncn2[C@@H]1O[C@H](COP(=O)(O)OP(=O)(O)OP(=O)(O)O)[C@@H](O)[C@H]1O
As to the kind of experiment: purified protein, by the assay type. It counts as biochemical, Nitrosopumilus maritimus. To be noted: other: nmr, 5 mM potassium mevalonate, pH 7.6, 30° C., Lineweaver-Burk plot. The procedure: as §4, §5, §6

T2 sequence (D1YZ39 entry or part of it): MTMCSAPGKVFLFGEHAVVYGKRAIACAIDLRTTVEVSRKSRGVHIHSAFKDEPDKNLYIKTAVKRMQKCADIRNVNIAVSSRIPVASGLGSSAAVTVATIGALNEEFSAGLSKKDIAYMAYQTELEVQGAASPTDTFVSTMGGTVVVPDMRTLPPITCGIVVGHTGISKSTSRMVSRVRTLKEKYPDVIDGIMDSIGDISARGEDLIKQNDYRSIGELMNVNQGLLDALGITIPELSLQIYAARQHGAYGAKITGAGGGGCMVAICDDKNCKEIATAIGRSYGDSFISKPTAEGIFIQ

Regarding `Nc1ncnc2c1ncn2[C@@H]1O[C@H](COP(=O)(O)OP(=O)(O)OP(=O)(O)O)[C@@H](O)[C@H]1O` [ATP], the “Affinity” value in series [1] and in series [2] was “higher affinity” throughout.

As for `CC(O)(CCOP(=O)(O)OP(=O)(O)O)CC(=O)O` (racemic) [DPM, (±)-mevalonic acid 5-diphosphate tetralithium salt], the “Enzyme activity with 1 mM DPM” value in series [3] is given as 0.07555 dABS/min; in series [4], 0.1353 dABS/min; in series [5] (1 mM DPM, control 0.1604), 0.1368 dABS/min; in series [6], 0.156 dABS/min; in series [7], 0.2 dABS/min; in series [8] it was 0.0984 dABS/min. Also, the “Inhibition by DPM” value in series [5] (1 mM diphosphomevalonate) is “Slight inhibitory activity”. The “DPM-induced inhibition” value in [9] (reaction on 1 mM mevalonate) is given as “inhibition is not observed”.

Take `C[C@@](O)(CCOP(=O)(O)O)CC(=O)O` [phosphomevalonate, mevalonate-5-phosphate]: the “Product inhibition” value in [9] (1 mM mevalonate as substrate, 50 mM ATP) is listed as “may cause product inhibition”.

With `C[C@@](O)(CCO)CC(=O)[O-].[K+]` [potassium mevalonate], in [10], the “stability after frozen storage” value is “stable”.

B1: Corynebacterium variabile mevalonate kinase (cva), wild type, SEQ ID NO:3, N-terminal His-tag (Corynebacterium variabile) (protein)
chain: MAPHVGHGQTVAKIILFGEHSVVYGHPAIAMPLRTLRMIARVEPTDGPGTLSGLGWTGPITEAPARFSSIVKAAEVASDFAGHPGAGLNISTESEFPPERGLGSSAAAAGAVIRAVLDAFDTPATPRELFDLTQEAETVAHGRPSGLDAVATSAEAPVHFQAGQATDLEFSPDAWIVIADSGVEGSTRETVGHVRGRFEAEPDIITALLNRLGEITDEVVVDLRTGDVQGMGARMTEAHGILGQLGVSNTQLDALVTASLGAGALGAKLTGGGRGGCVIALAATEEDAENVEKALVDAGARGTWVHAPATGQMAGEVMQ
For the molecule B1, the Km in series [11] is on record as 1347 ± 29^ μM.

B2: Saccharomyces cerevisiae mevalonate kinase (sce, ERG12), wild type, NP_013935.1, N-terminal His-tag (Saccharomyces cerevisiae S288C) (protein)
chain: T5 sequence (P07277 1-443)
notes: His-tag (N); made in house; host or cells: E. coli BL21(DE3)
Turning to B2, in series [12], the Km is 464 ± 7.6 µM.

B3: Methanosarcina mazei mevalonate kinase (mma), wild type, SEQ ID NO:12, N-terminal His-tag (Methanosarcina mazei Go1) (protein)
chain: T3 sequence (Q8PW39 1-301)
Consider B3, for which the Km in series [13] stood at 687 ± 9.3 µM.

B4: Nitrosopumilus maritimus mevalonate kinase (nmr), wild type, SEQ ID NO:9, N-terminal His-tag (Nitrosopumilus maritimus SCM1) (protein)
chain: MKSKASAPGKVILFGEHFVVYGVKAILCAINKRIAVTAEKIDERKISIKSNIGHLELEPNKPISEINSPLKPFYYLANKIIQDKNFGIKIDVESEIPLGVGLGSSSACCVAGAAAISNLFENNSKEEILKLAIEAEKTIFQNTSGADCTVCTFGGLMEYDKENGFSKIESEPNFHLVIANSNVEHSTESVVAGVRKFKKNNEAEFSKLCKDESHLIENVLELLKENNIRELGERVIKNQEYLERIGISNAKLREMIQTGQNSSFGAKITGAGGGGCIFALTDESNLENTIKEFKEKNHECFSVKIDFKGLDTF
With B4, in series [14], the Km is 1006 ± 20^ μM.
